Source: EPA's ToxRefDB 2

What was measured:
rat [1] = details: Sub-acute repeat dose toxicity, Oral, Gavage/Intubation, dose end: 14 day, group: systemic
rat [2] = details: Sub-acute repeat dose toxicity, sprague dawley, Oral, Gavage/Intubation, dose end: 14 day, group: systemic
dog [3] = details: Sub-acute repeat dose toxicity; beagle; Oral; Gavage/Intubation; dose end: 14 day; group: systemic; systemic / in life observation / clinical signs / abnormal feces
mouse [4] = details: Subchronic oral toxicity in rodents, b6c3f1, Dermal, Topical, dose end: 14 week, group: systemic
rat [5] = details: Sub-acute dermal toxicity, fischer, Topical, dose end: 2 week, group: systemic, systemic / pathology microscopic / skin / hyperkeratosis + systemic / pathology microscopic / skin / hyperplasia + systemic / pathology …
mouse [6] = details: Sub-acute dermal toxicity, b6c3f1, Topical, dose end: 2 week, group: systemic, systemic / pathology gross / skin / [other] + systemic / pathology gross / skin / thickened + systemic / pathology gross / skin / ulcer + …
rat [7] = details: Carcinogenicity, fischer, Dermal, Topical, dose end: 105 week, group: systemic
rat [8] = details: Sub-acute dermal toxicity, wistar, Topical, dose end: 21 day, group: systemic, systemic / in life observation / clinical signs / erythema + systemic / in life observation / clinical signs / skin ulceration + systemic / …
dog [9] = details: Other (NonGuideline or Guideline Not Listed); beagle; Oral; Feed; dose end: 13 week; group: cannot be grouped; systemic / clinical chemistry / thyroxine (t4) / thyroxine (t4), total + systemic / clinical chemistry / triiodothyronine (t3) / …
rat [10] = details: Subchronic dermal toxicity, fischer, Topical, dose end: 14 week, group: systemic
dog [11] = details: Subchronic oral toxicity in nonrodent, beagle, Feed, dose end: 90 day, group: systemic, systemic / organ weight / ovary / relative to body weight + systemic / organ weight / thyroid gland / relative to body weight
rat [12] = details: Prenatal developmental toxicity study, sprague dawley, Oral, Gavage/Intubation, dose end: 15 GD
mouse [13] = details: Carcinogenicity; b6c3f1; Dermal; Topical; dose end: 105 week; group: systemic; systemic / pathology microscopic / skin / hyperplasia + systemic / pathology microscopic / skin / inflammation
dog [14] = details: Subchronic oral toxicity in nonrodent, beagle, Feed, dose end: 90 day, group: systemic
rat [15] = details: Other (NonGuideline or Guideline Not Listed), Oral, Feed, dose end: 111 PND, group: cannot be grouped
rat [16] = details: Subchronic oral toxicity in rodents, fischer, Gavage/Intubation, dose end: 13 week, group: systemic
mouse [17] = details: Subchronic oral toxicity in rodents, b6c3f1, Gavage/Intubation, dose end: 13 week, group: systemic, systemic / in life observation / body weight / body weight
rat [18] = details: Carcinogenicity; fischer; Oral; Gavage/Intubation; dose end: 103 week; group: systemic; systemic / in life observation / body weight / body weight
mouse [19] = details: Carcinogenicity, b6c3f1, Oral, Gavage/Intubation, dose end: 103 week, group: systemic
[20] = systemic / in life observation / clinical signs / salivation
[21] = systemic / in life observation / clinical signs / urine staining - perineum + systemic / in life observation / clinical signs / salivation
[22] = systemic / clinical chemistry / glucose / glucose + systemic / clinical chemistry / urea nitrogen / urea nitrogen + systemic / clinical …
[23] = systemic / organ weight / lung / absolute + systemic / organ weight / lung / relative to body weight
[24] = systemic / organ weight / lung / absolute + systemic / organ weight / lung / relative to body weight + systemic / organ weight / liver / …
[25] = systemic / pathology gross / skin / [other] + systemic / pathology microscopic / skin / hyperkeratosis + systemic / pathology microscopic / …
[26] = systemic / pathology microscopic / skin / hyperkeratosis + systemic / pathology microscopic / skin / inflammation + systemic / pathology …
[27] = systemic / pathology microscopic / skin / hyperkeratosis
[28] = systemic / pathology microscopic / skin / hyperkeratosis + systemic / pathology microscopic / skin / hyperplasia + systemic / pathology …
[29] = group: developmental, developmental / developmental malformation / [other] / [other]
[30] = group: maternal, systemic / in life observation / body weight / body weight gain + reproductive / reproductive performance / resorptions / resorptions
[31] = systemic / pathology microscopic / kidney / pigmentation + systemic / pathology microscopic / spleen / hematopoietic cell proliferation
[32] = systemic / in life observation / body weight / body weight gain + systemic / in life observation / food consumption / food consumption
[33] = systemic / in life observation / body weight / body weight gain + systemic / in life observation / food consumption / food consumption + …
[34] = systemic / in life observation / body weight / body weight + systemic / in life observation / mortality / mortality + systemic / pathology …
[35] = systemic / pathology microscopic / liver / hypertrophy + systemic / pathology microscopic / liver / necrosis + systemic / pathology …

Compound: O=C(O)CCN(C1(C(=O)NO)CCCC1)S(=O)(=O)c1ccc(Oc2ccc(F)cc2)cc1
- LEL (rat [1]; [20]): 300 mg/kg/day
- NEL (rat [1]; [20]): < 300 mg/kg/day
- LOAEL (rat [1]; [21]): > 500 mg/kg/day
- NOAEL (rat [1]; [21]): ≥ 500 mg/kg/day
- LEL (rat [2]; systemic / clinical chemistry / glucose / glucose + systemic / clinical chemistry / urea nitrogen / urea nitrogen): 150 mg/kg/day
- LOAEL (rat [2]; [22]): > 500 mg/kg/day
- NOAEL (rat [2]; [22]): ≥ 500 mg/kg/day
- LEL (dog [3]): 250 mg/kg/day
- LOAEL (dog [3]): > 250 mg/kg/day
- NEL (dog [3]): 50 mg/kg/day
- NOAEL (dog [3]): ≥ 250 mg/kg/day

Compound: N#CCCC(Br)(C#N)CBr (stereo not drawn) [1,2-Dibromo-2,4-dicyanobutane]
- LEL (mouse [4]; [23]): 0.2 mg/kg/day
- NEL (mouse [4]; [23]): < 0.2 mg/kg/day
- LOAEL (mouse [4]; [24]): > 18 mg/kg/day
- NOAEL (mouse [4]; [24]): ≥ 18 mg/kg/day
- LEL (rat [5]): 37.5 mg/kg/day
- LOAEL (rat [5]): 37.5 mg/kg/day
- NEL (rat [5]): < 37.5 mg/kg/day
- NOAEL (rat [5]): < 37.5 mg/kg/day
- LEL (mouse [6]): 75 mg/kg/day
- LOAEL (mouse [6]): 75 mg/kg/day
- NEL (mouse [6]): < 75 mg/kg/day
- NOAEL (mouse [6]): < 75 mg/kg/day
- LOAEL (rat [7]; [25]): 6 mg/kg/day
- NOAEL (rat [7]; [25]): 2 mg/kg/day
- LEL (rat [7]; [26]): 2 mg/kg/day
- NEL (rat [7]; [26]): < 2 mg/kg/day
- LEL (rat [8]): 1000 mg/kg/day
- LOAEL (rat [8]): 1000 mg/kg/day
- NEL (rat [8]): < 1000 mg/kg/day
- NOAEL (rat [8]): < 1000 mg/kg/day
- LEL (dog [9]): 4.17 mg/kg/day
- LOAEL (dog [9]): 4.17 mg/kg/day
- NEL (dog [9]): < 4.17 mg/kg/day
- NOAEL (dog [9]): < 4.17 mg/kg/day
- LEL (rat [10]; [27]): 0.2 mg/kg/day
- NEL (rat [10]; [27]): < 0.2 mg/kg/day
- LOAEL (rat [10]; [28]): 2 mg/kg/day
- NOAEL (rat [10]; [28]): 0.6 mg/kg/day
- LEL (dog [11]): 4.17 mg/kg/day
- LOAEL (dog [11]): 4.17 mg/kg/day
- NEL (dog [11]): < 4.17 mg/kg/day
- NOAEL (dog [11]): < 4.17 mg/kg/day
- LEL (rat [12]; [29]): 100 mg/kg/day
- LOAEL (rat [12]; [29]): 100 mg/kg/day
- NEL (rat [12]; [29]): 25 mg/kg/day
- NOAEL (rat [12]; [29]): 25 mg/kg/day
- LEL (rat [12]; [30]): 100 mg/kg/day
- LOAEL (rat [12]; [30]): 100 mg/kg/day
- NEL (rat [12]; [30]): 25 mg/kg/day
- NOAEL (rat [12]; [30]): 25 mg/kg/day
- LEL (mouse [13]): 0.6 mg/kg/day
- LOAEL (mouse [13]): 0.6 mg/kg/day
- NEL (mouse [13]): < 0.6 mg/kg/day
- NOAEL (mouse [13]): < 0.6 mg/kg/day
- LOAEL (dog [14]; systemic / in life observation / clinical signs / defecation (diarrhea) + systemic / in life observation / clinical signs / emesis): 3.11 mg/kg/day
- NOAEL (dog [14]; systemic / in life observation / clinical signs / defecation (diarrhea) + systemic / in life observation / clinical signs / emesis + …): 0.331 mg/kg/day
- LEL (dog [14]; [31]): 0.288 mg/kg/day
- NEL (dog [14]; [31]): < 0.288 mg/kg/day
- NEL (rat [15]; [32]): 4.17 mg/kg/day
- NOAEL (rat [15]; [32]): 4.17 mg/kg/day
- LEL (rat [15]; [33]): 25 mg/kg/day
- LOAEL (rat [15]; [33]): 25 mg/kg/day

Compound: CC(Cl)CCl (stereo not drawn) [1,2-Dichloropropane]
- LEL (rat [16]; systemic / in life observation / body weight / body weight + systemic / in life observation / mortality / mortality): 500 mg/kg/day
- LOAEL (rat [16]; [34]): > 1000 mg/kg/day
- NEL (rat [16]; [34]): 250 mg/kg/day
- NOAEL (rat [16]; [34]): ≥ 1000 mg/kg/day
- LEL (mouse [17]): 30 mg/kg/day
- LOAEL (mouse [17]): 500 mg/kg/day
- NEL (mouse [17]): < 30 mg/kg/day
- NOAEL (mouse [17]): 250 mg/kg/day
- LEL (rat [18]): 62 mg/kg/day
- LOAEL (rat [18]): 125 mg/kg/day
- NEL (rat [18]): < 62 mg/kg/day
- LOAEL (mouse [19]; systemic / pathology microscopic / liver / hypertrophy + systemic / pathology microscopic / liver / necrosis): 250 mg/kg/day
- LEL (mouse [19]; [35]): 125 mg/kg/day
- NEL (mouse [19]; [35]): < 125 mg/kg/day
- NOAEL (mouse [19]; [35]): 125 mg/kg/day
